These results are taken from patent US6730521B1, “Chemical and biochemical assay method and apparatus” (The Technology Partnership PLC, priority 1999, dated 2004).

The target of the test is T1, streptavidin (Streptomyces avidinii, UniProt P22629).
T1 construct: purchased Dynal
The test is described as follows: FITC-biotin binding to a single streptavidin-coated bead in a scanned droplet. To be noted: 5 μl of 48 nM FITC-biotin plus 5 μl buffer with a single 2.8 μm streptavidin bead; equilibrium after 30 minutes. The procedure:
A 5 μl sample of a solution of 48 nM fluorescein isothiocyanate-labelled biotin (FITC-biotin) is added to 5 μl of a solution of buffer containing a single 2.8 μm diameter bead coated with streptavidin (obtained from Dynal). The sample was presented to the instrument for scanning as a 10 μl droplet on the surface of a glass microscope slide. Illumination and light collection was arranged from above the sample. The instrument was set to take fluorescent intensity measurements at 1 μm intervals across the sample in the x-direction with a line-to-line step of 2.2 μm in the y-direction. As the laser spot size was 6 μmm, this allowed for overlap between each scan line. The graphs plot the relative intensity (analogue-to-digital converter or ADC counts) against position (sample number) for several adjacent scan lines. Initially, the FITC-biotin has had insufficient time to diffuse to the streptavidin sites concentrated on the bead. The sample was scanned at intervals over the period of the experiment. It can be readily appreciated that the signal obtained from the illumination will be proportional to the number of molecules of label (FITC-biotin) in the path of the laser at each point. If, as in this case, the label is homogenous throughout the droplet then the signal at each point is proportional to the path length of the laser through the sample. […]

T1 sequence (P22629 25-183): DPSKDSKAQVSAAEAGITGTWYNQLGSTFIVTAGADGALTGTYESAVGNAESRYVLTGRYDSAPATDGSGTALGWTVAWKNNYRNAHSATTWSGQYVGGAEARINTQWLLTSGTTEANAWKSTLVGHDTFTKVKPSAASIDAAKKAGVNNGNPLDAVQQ

“fluorescein isothiocyanate-labelled biotin [FITC-biotin]”: the “PVS/UVS signal ratio at equilibrium” value was “approx. 6.1”.
